From PubChem BioAssay (NCI)
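Dose response: 5 concentrations. Exposure: 48 h. Format: 96-well plates. Endpoint: linear interpolation; highest concentration if not reached. GI50 = concentration required for 50% inhibition of growth. At the TGI there is no net growth.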

What was measured:
Experiment in all cases: DTP human tumour cell line panel, 48 h
T-47D breast = test system: T-47D breast
NCI-H522 lung = test system: NCI-H522 lung
LOX IMVI melanoma = test system: LOX IMVI melanoma
NCI-H460 lung = test system: NCI-H460 lung
NCI-H226 lung = test system: NCI-H226 lung
SNB-75 CNS = test system: SNB-75 CNS
KM12 colon = test system: KM12 colon
PC-3 prostate = test system: PC-3 prostate
MDA-MB-231 breast = test system: MDA-MB-231 breast
CAKI-1 renal = test system: CAKI-1 renal
MOLT-4 leukemia = test system: MOLT-4 leukemia
UACC-62 melanoma = test system: UACC-62 melanoma
HT29 colon = test system: HT29 colon
MDA-MB-435 = test system: MDA-MB-435
MCF7 breast = test system: MCF7 breast
SF-295 CNS = test system: SF-295 CNS
RPMI-8226 leukemia = test system: RPMI-8226 leukemia
K-562 leukemia = test system: K-562 leukemia
HCT-15 colon = test system: HCT-15 colon
SF-539 CNS = test system: SF-539 CNS
SR leukemia = test system: SR leukemia
ACHN renal = test system: ACHN renal
HCT-116 colon = test system: HCT-116 colon
OVCAR-3 ovarian = test system: OVCAR-3 ovarian
HCC-2998 colon = test system: HCC-2998 colon
OVCAR-5 ovarian = test system: OVCAR-5 ovarian
MALME-3M melanoma = test system: MALME-3M melanoma
U251 CNS = test system: U251 CNS
A549 NSCLC = test system: A549 NSCLC
SF-268 CNS = test system: SF-268 CNS
HS 578T breast = test system: HS 578T breast
SK-MEL-5 melanoma = test system: SK-MEL-5 melanoma
SK-MEL-2 melanoma = test system: SK-MEL-2 melanoma
TK-10 renal = test system: TK-10 renal
NCI-H23 lung = test system: NCI-H23 lung
CCRF-CEM leukemia = test system: CCRF-CEM leukemia
BT-549 breast = test system: BT-549 breast
HOP-92 NSCLC = test system: HOP-92 NSCLC
EKVX NSCLC = test system: EKVX NSCLC
DU-145 prostate = test system: DU-145 prostate
OVCAR-4 ovarian = test system: OVCAR-4 ovarian
IGROV1 ovarian = test system: IGROV1 ovarian
HOP-62 NSCLC = test system: HOP-62 NSCLC
SK-MEL-28 melanoma = test system: SK-MEL-28 melanoma
M14 melanoma = test system: M14 melanoma
SN12C renal = test system: SN12C renal
HL-60(TB) leukemia = test system: HL-60(TB) leukemia
SNB-19 CNS = test system: SNB-19 CNS
UACC-257 melanoma = test system: UACC-257 melanoma
SW-620 colon = test system: SW-620 colon
OVCAR-8 ovarian = test system: OVCAR-8 ovarian
NCI/ADR-RES ovarian = test system: NCI/ADR-RES ovarian
A498 renal = test system: A498 renal
786-0 renal = test system: 786-0 renal
COLO 205 colon = test system: COLO 205 colon
SK-OV-3 ovarian = test system: SK-OV-3 ovarian

Compound `Cc1nc(N)sc1-c1csc(Nc2ccc(C(F)(F)F)cc2)n1` has a GI50 (T-47D breast) of 1.65 µM, a TGI (T-47D breast) of 10.1 µM and a GI50 (NCI-H522 lung) of 4.75 µM. The TGI (NCI-H522 lung) was 18.7 µM, the GI50 (LOX IMVI melanoma) was 2.44 µM and the TGI (LOX IMVI melanoma) was 9.9 µM. It also gave a GI50 (NCI-H460 lung) of 3.44 µM, a TGI (NCI-H460 lung) of 15.7 µM and a GI50 (NCI-H226 lung) of 2.72 µM. The TGI (NCI-H226 lung) was 24.3 µM, the GI50 (SNB-75 CNS) was 3.41 µM and the TGI (SNB-75 CNS) was 16.9 µM. For the same compound, the GI50 (KM12 colon) was 3.55 µM, the TGI (KM12 colon) was 14.5 µM and the GI50 (PC-3 prostate) was 4.12 µM. For the same compound, the TGI (PC-3 prostate) was 22.2 µM, the GI50 (MDA-MB-231 breast) was 3.45 µM and the TGI (MDA-MB-231 breast) was 17.5 µM. It also gave a GI50 (CAKI-1 renal) of 3.62 µM, a TGI (CAKI-1 renal) of 17.5 µM and a GI50 (MOLT-4 leukemia) of 2.71 µM. It also gave a TGI (MOLT-4 leukemia) of 21.1 µM, a GI50 (UACC-62 melanoma) of 8.61 µM and a TGI (UACC-62 melanoma) of 21 µM. It also gave a GI50 (HT29 colon) of 2.49 µM, a TGI (HT29 colon) of 7.09 µM and a GI50 (MDA-MB-435) of 4.43 µM. It also gave a TGI (MDA-MB-435) of 17.4 µM, a GI50 (MCF7 breast) of 2.65 µM and a TGI (MCF7 breast) of 16 µM. It also gave a GI50 (SF-295 CNS) of 3.08 µM, a TGI (SF-295 CNS) of 15.1 µM and a GI50 (RPMI-8226 leukemia) of 3.98 µM. For the same compound, the TGI (RPMI-8226 leukemia) was 72.3 µM, the GI50 (K-562 leukemia) was 3.27 µM and the TGI (K-562 leukemia) was 31 µM. It also gave a GI50 (HCT-15 colon) of 3.02 µM, a TGI (HCT-15 colon) of 11.9 µM and a GI50 (SF-539 CNS) of 6.69 µM. The TGI (SF-539 CNS) was 20 µM, the GI50 (SR leukemia) was 3.6 µM and the TGI (SR leukemia) was 24.2 µM. For the same compound, the GI50 (ACHN renal) was 2.75 µM, the TGI (ACHN renal) was 13.9 µM and the GI50 (HCT-116 colon) was 3.36 µM. The TGI (HCT-116 colon) was 16 µM, the GI50 (OVCAR-3 ovarian) was 4.41 µM and the TGI (OVCAR-3 ovarian) was 17.3 µM. It also gave a GI50 (HCC-2998 colon) of 4.66 µM, a TGI (HCC-2998 colon) of 17.3 µM and a GI50 (OVCAR-5 ovarian) of 4.42 µM. The TGI (OVCAR-5 ovarian) was 18.9 µM, the GI50 (MALME-3M melanoma) was 4.11 µM and the TGI (MALME-3M melanoma) was 17.6 µM. It also gave a GI50 (U251 CNS) of 7.17 µM, a TGI (U251 CNS) of 26.2 µM and a GI50 (A549 NSCLC) of 7.34 µM. For the same compound, the TGI (A549 NSCLC) was 35.8 µM, the GI50 (SF-268 CNS) was 6.75 µM and the TGI (SF-268 CNS) was 22.6 µM. It also gave a GI50 (HS 578T breast) of 2.84 µM, a TGI (HS 578T breast) of 23.6 µM and a GI50 (SK-MEL-5 melanoma) of 3.32 µM. For the same compound, the TGI (SK-MEL-5 melanoma) was 11.9 µM, the GI50 (SK-MEL-2 melanoma) was 1.76 µM and the TGI (SK-MEL-2 melanoma) was 16.4 µM. For the same compound, the GI50 (TK-10 renal) was 8.73 µM, the TGI (TK-10 renal) was 21.4 µM and the GI50 (NCI-H23 lung) was 5.57 µM. It also gave a TGI (NCI-H23 lung) of 21.7 µM, a GI50 (CCRF-CEM leukemia) of 3.22 µM and a TGI (CCRF-CEM leukemia) of 53 µM. For the same compound, the GI50 (BT-549 breast) was 2.03 µM, the TGI (BT-549 breast) was 6.75 µM and the GI50 (HOP-92 NSCLC) was 2.63 µM. It also gave a TGI (HOP-92 NSCLC) of 15 µM, a GI50 (EKVX NSCLC) of 3.83 µM and a TGI (EKVX NSCLC) of 17.6 µM. The GI50 (DU-145 prostate) was 4.59 µM, the TGI (DU-145 prostate) was 17.7 µM and the GI50 (OVCAR-4 ovarian) was 3.63 µM. It also gave a TGI (OVCAR-4 ovarian) of 16.7 µM, a GI50 (IGROV1 ovarian) of 2.01 µM and a TGI (IGROV1 ovarian) of 14.7 µM. The GI50 (HOP-62 NSCLC) was 7.86 µM, the TGI (HOP-62 NSCLC) was 26.4 µM and the GI50 (SK-MEL-28 melanoma) was 10.2 µM. The TGI (SK-MEL-28 melanoma) was 21.9 µM, the GI50 (M14 melanoma) was 3.25 µM and the TGI (M14 melanoma) was 14.8 µM. It also gave a GI50 (SN12C renal) of 6.72 µM, a TGI (SN12C renal) of 21 µM and a GI50 (HL-60(TB) leukemia) of 13.2 µM. The TGI (HL-60(TB) leukemia) was 32.2 µM, the GI50 (SNB-19 CNS) was 11.9 µM and the TGI (SNB-19 CNS) was 24.8 µM. It also gave a GI50 (UACC-257 melanoma) of 9.37 µM, a TGI (UACC-257 melanoma) of 22.1 µM and a GI50 (SW-620 colon) of 4.92 µM. For the same compound, the TGI (SW-620 colon) was 19.5 µM, the GI50 (OVCAR-8 ovarian) was 11.1 µM and the TGI (OVCAR-8 ovarian) was 25.6 µM. For the same compound, the GI50 (NCI/ADR-RES ovarian) was 5.36 µM, the TGI (NCI/ADR-RES ovarian) was 21 µM and the GI50 (A498 renal) was 11.9 µM. It also gave a TGI (A498 renal) of 25.1 µM, a GI50 (786-0 renal) of 4.41 µM and a TGI (786-0 renal) of 17.5 µM. For the same compound, the GI50 (COLO 205 colon) was 11.9 µM, the TGI (COLO 205 colon) was 36.9 µM and the GI50 (SK-OV-3 ovarian) was 16.4 µM. It also gave a TGI (SK-OV-3 ovarian) of 33.4 µM.
